From patent US6432426B1, “Non-staining topical iodine composition and method” (Symbollon Corporation, priority 1998, dated 2002)

Assays:
Type in all cases: in vivo
Human Skin = experiment: Diffusion of iodine from skin post application (DPD absorbance at 553 nm); conditions: average of three subjects
Description: 2. Three samples from Example 1 were used to confirm that molecular iodine will penetrate into skin and remain in the skin for a prolonged time period.
Application of the iodine solution onto skin was performed as described in Example 1 above with the exception that the contacted area was flushed with water for 15 seconds immediately after following contact between the iodine solution and skin. The method of Goftardi (J. Hosp. Infect., 1995, Vol 29, pages 9-18) were used to measure the amount of molecular iodine coming out of the skin. Briefly, 1 mL of a diethyl-p-phenylenediamine (DPD) solution was placed concentrically onto the exposed area of skin and left there for 30 seconds. This solution was then transferred to a 1 cm cuvette and the absorbance was read at 553 nm. Control values were obtained by contacting the DPD solution to an unexposed area on the forearm of each subject. Control values were subtracted from the experimental measurements. Iodine solutions containing 50 ppm, 150 ppm and 300 ppm of molecular iodine were used for this example. Two measurements were made (one measurement of each forearm) at each iodine concentration on all three subjects.

Staphylococcus aureus = experiment: Residual biocidal effect of skin associated iodine, colony counts from inoculated treated skin; conditions: 320 ppm saturated molecular iodine solution, 30 second contact; inoculated two hours after contact, sampled ninety minutes after inoculation
Description: 5. […] […] […] […] The samples were contacted with the arm for 30 seconds. After contact the treated arm was flushed with water for 15 seconds and dried.
[…] Two hours after contact each area was inoculated with […] of a 1:100 dilution of a 48 hour soy-trypticase culture of Staphylococcus aureus. Ninety minutes after inoculation the mouths of sterile 25 mL flasks filled with 2 mL of soy-trypticase with 2% Tween 80 were placed over the marked skin areas. The flasks were gently shaken for 1 minute and a colony count was performed on blood agar plates after incubation at 37° C. for 48 hours. The residual biocidal effect from skin associated molecular iodine was determined by subtracting the log of the colony counts from the areas of skin that were contacted with iodine from the controls (log colony count from untreated skin). The average difference in colony counts between treated and untreated skin was 2.4 logs.

Salmonella typhimurium = experiment: Residual biocidal effect of skin associated iodine, repeated experiment; conditions: saturated molecular iodine solution (320 ppm)

Structure (SMILES): II [Molecular Iodine, molecular iodine]
- Mean absorbance (DPD, 553 nm), iodine diffusing from skin (Human Skin; 50 ppm I2, 3 minutes after application): 0.06
- Mean absorbance (DPD, 553 nm), iodine diffusing from skin (Human Skin; 50 ppm I2, 6 minutes after application): 0.17
- Mean absorbance (DPD, 553 nm), iodine diffusing from skin (Human Skin; 50 ppm I2, 20 minutes after application): 0.19
- Mean absorbance (DPD, 553 nm), iodine diffusing from skin (Human Skin; 50 ppm I2, 60 minutes after application): 0.18
- Mean absorbance (DPD, 553 nm), iodine diffusing from skin (Human Skin; 50 ppm I2, 90 minutes after application): 0.13
- Mean absorbance (DPD, 553 nm), iodine diffusing from skin (Human Skin; 50 ppm I2, 120 minutes after application): 0.08
- Mean absorbance (DPD, 553 nm), iodine diffusing from skin (Human Skin; 50 ppm I2, 240 minutes after application): 0.06
- Mean absorbance (DPD, 553 nm), iodine diffusing from skin (Human Skin; 50 ppm I2, 660 minutes after application): 0.02
- Mean absorbance (DPD, 553 nm), iodine diffusing from skin (Human Skin; 150 ppm I2, 3 minutes after application): 0.32
- Mean absorbance (DPD, 553 nm), iodine diffusing from skin (Human Skin; 150 ppm I2, 6 minutes after application): 0.31
- Mean absorbance (DPD, 553 nm), iodine diffusing from skin (Human Skin; 150 ppm I2, 20 minutes after application): 0.48
- Mean absorbance (DPD, 553 nm), iodine diffusing from skin (Human Skin; 150 ppm I2, 60 minutes after application): 0.53
- Mean absorbance (DPD, 553 nm), iodine diffusing from skin (Human Skin; 150 ppm I2, 90 minutes after application): 0.50
- Mean absorbance (DPD, 553 nm), iodine diffusing from skin (Human Skin; 150 ppm I2, 120 minutes after application): 0.46
- Mean absorbance (DPD, 553 nm), iodine diffusing from skin (Human Skin; 150 ppm I2, 240 minutes after application): 0.36
- Mean absorbance (DPD, 553 nm), iodine diffusing from skin (Human Skin; 150 ppm I2, 660 minutes after application): 0.20
- Mean absorbance (DPD, 553 nm), iodine diffusing from skin (Human Skin; 300 ppm I2, 3 minutes after application): 0.78
- Mean absorbance (DPD, 553 nm), iodine diffusing from skin (Human Skin; 300 ppm I2, 6 minutes after application): 0.65
- Mean absorbance (DPD, 553 nm), iodine diffusing from skin (Human Skin; 300 ppm I2, 20 minutes after application): 1.11
- Mean absorbance (DPD, 553 nm), iodine diffusing from skin (Human Skin; 300 ppm I2, 60 minutes after application): 0.93
- Mean absorbance (DPD, 553 nm), iodine diffusing from skin (Human Skin; 300 ppm I2, 90 minutes after application): 0.77
- Mean absorbance (DPD, 553 nm), iodine diffusing from skin (Human Skin; 300 ppm I2, 120 minutes after application): 0.64
- Mean absorbance (DPD, 553 nm), iodine diffusing from skin (Human Skin; 300 ppm I2, 240 minutes after application): 0.57
- Mean absorbance (DPD, 553 nm), iodine diffusing from skin (Human Skin; 300 ppm I2, 660 minutes after application): 0.40
- Average difference in colony counts between treated and untreated skin (Staphylococcus aureus): 2.4 logs
- Residual biocidal efficacy on skin (Salmonella typhimurium): Efficacy was also demonstrated
